Source: patent US12319648B2, “Fluorinated phenylacetic acid derivatives in a weed control method” (SYNGENTA CROP PROTECTION AG, priority 2019, dated 2025)

How the values were obtained:
Format in all cases: in vivo
[1] = tested on: Amaranthus retoflexus (AMARE); experiment: Post-emergence herbicidal glasshouse test; details: for percentage damage caused to the plant, five-point scale, AMARE: post-emergence, 250 g/ha, 13 days after application; for % phytotoxicity AMARE: comparative post-emergence test
Protocol: (§1) Seeds of a variety of test species are shown in standard soil in pots Amaranthus retoflexus (AMARE), Ipomoea hederacea (IPOHE), Solanum nigrum (SOLNI), Lolium perenne (LOLPE). Echinochloa crus-galli (ECHCG), Setaria faberi (SETFA)). After cultivation for one day (pre-emergence) or after 8 days cultivation (post-emergence) under controlled conditions in a glasshouse (at 24/16° C., day/night; 14 hours light; 65% humidity), the plants are sprayed with an aqueous spray solution derived from the formulation of the technical active ingredient in acetone/water (50:50) solution containing 0.5% Tween 20 (polyoxyethylene sorbitan monolaurate, CAS RN 9005-64-5). Compounds are applied at 250 g/ha unless otherwise stated. The test plants are then grown in a glasshouse under controlled conditions in a glasshouse (at 24/16° C., day/night; 14 hours light; 65% humidity) and watered twice daily. After 13 days for pre and post-emergence, the test is evaluated for the percentage damage caused to the plant. The biological activities are shown in the following table on a five-point scale (5=81-100%; 4=61-80%; 3=41-60%; 2=21-40%; 1=0-20%).
(§2) Using the experimental conditions outlined above, a further test is conducted to compare the herbicidal properties of the difluro containing compound (1.014) with a representative compound (C1) referred to in GB901553. The compounds are applied at 1000 g/ha and 500 g/ha. The test is evaluated for the percentage damage caused to the plant (% phytotoxicity).

[2] = tested on: Echinochloa crus-galli (ECHCG); experiment: Post-emergence herbicidal glasshouse test; details: for percentage damage caused to the plant, five-point scale, ECHCG: post-emergence, 250 g/ha, 13 days after application; for % phytotoxicity ECHCG: comparative post-emergence test
Protocol: as §1, §2

[3] = tested on: Ipomoea hederacea (IPOHE); experiment: Post-emergence herbicidal glasshouse test; details: for percentage damage caused to the plant, five-point scale, IPOHE: post-emergence, 250 g/ha, 13 days after application; for % phytotoxicity IPOHE: comparative post-emergence test
Protocol: as §1, §2

Lolium perenne (LOLPE) [4] = experiment: Post-emergence herbicidal glasshouse test; details: for percentage damage caused to the plant, five-point scale, LOLPE: post-emergence, 250 g/ha, 13 days after application; for % phytotoxicity LOLPE: comparative post-emergence test
Protocol: as §1, §2

Setaria faberi (SETFA) [5] = experiment: Post-emergence herbicidal glasshouse test; details: for percentage damage caused to the plant, five-point scale, SETFA: post-emergence, 250 g/ha, 13 days after application; for % phytotoxicity SETFA: comparative post-emergence test
Protocol: as §1, §2

Solanum nigrum (SOLNI) [6] = experiment: Post-emergence herbicidal glasshouse test; details: for percentage damage caused to the plant, five-point scale, SOLNI: post-emergence, 250 g/ha, 13 days after application; for % phytotoxicity SOLNI: comparative post-emergence test
Protocol: as §1, §2

[7] = tested on: Amaranthus retoflexus (AMARE); experiment: Pre-emergence herbicidal glasshouse test; details: for percentage damage caused to the plant, five-point scale, AMARE: pre-emergence, 250 g/ha, 13 days after application; for % phytotoxicity AMARE: comparative pre-emergence test
Protocol: as §1, §2

[8] = tested on: Echinochloa crus-galli (ECHCG); experiment: Pre-emergence herbicidal glasshouse test; details: for percentage damage caused to the plant, five-point scale, ECHCG: pre-emergence, 250 g/ha, 13 days after application; for % phytotoxicity ECHCG: comparative pre-emergence test
Protocol: as §1, §2

[9] = tested on: Ipomoea hederacea (IPOHE); experiment: Pre-emergence herbicidal glasshouse test; details: for percentage damage caused to the plant, five-point scale, IPOHE: pre-emergence, 250 g/ha, 13 days after application; for % phytotoxicity IPOHE: comparative pre-emergence test
Protocol: as §1, §2

Lolium perenne (LOLPE) [10] = experiment: Pre-emergence herbicidal glasshouse test; details: for percentage damage caused to the plant, five-point scale, LOLPE: pre-emergence, 250 g/ha, 13 days after application; for % phytotoxicity LOLPE: comparative pre-emergence test
Protocol: as §1, §2

Setaria faberi (SETFA) [11] = experiment: Pre-emergence herbicidal glasshouse test; details: for percentage damage caused to the plant, five-point scale, SETFA: pre-emergence, 250 g/ha, 13 days after application; for % phytotoxicity SETFA: comparative pre-emergence test
Protocol: as §1, §2

Solanum nigrum (SOLNI) [12] = experiment: Pre-emergence herbicidal glasshouse test; details: for percentage damage caused to the plant, five-point scale, SOLNI: pre-emergence, 250 g/ha, 13 days after application; for % phytotoxicity SOLNI: comparative pre-emergence test
Protocol: as §1, §2

O=C(O)C(F)(F)c1cccc(Cl)c1F [Compound 1.029]
2 (2=21-40%): percentage damage caused to the plant, five-point scale, ECHCG [2] | percentage damage caused to the plant, five-point scale, LOLPE (Lolium perenne (LOLPE) [10]) | percentage damage caused to the plant, five-point scale, SETFA (Setaria faberi (SETFA) [11])
3 (3=41-60%): percentage damage caused to the plant, five-point scale, IPOHE [3] | percentage damage caused to the plant, five-point scale, SETFA (Setaria faberi (SETFA) [5]) | percentage damage caused to the plant, five-point scale, IPOHE [9]
4 (4=61-80%): percentage damage caused to the plant, five-point scale, SOLNI (Solanum nigrum (SOLNI) [6])
5 (5=81-100%): percentage damage caused to the plant, five-point scale, AMARE [1] | percentage damage caused to the plant, five-point scale, AMARE [7] | percentage damage caused to the plant, five-point scale, SOLNI (Solanum nigrum (SOLNI) [12])
1 (1=0-20%): percentage damage caused to the plant, five-point scale, LOLPE (Lolium perenne (LOLPE) [4]) | percentage damage caused to the plant, five-point scale, ECHCG [8]

O=C(O)C(F)(F)c1cccc(F)c1F [Compound 1.031]
1 (1=0-20%): percentage damage caused to the plant, five-point scale, ECHCG [2] | percentage damage caused to the plant, five-point scale, LOLPE (Lolium perenne (LOLPE) [4]) | percentage damage caused to the plant, five-point scale, SETFA (Setaria faberi (SETFA) [5]) | percentage damage caused to the plant, five-point scale, AMARE [7] | percentage damage caused to the plant, five-point scale, ECHCG [8] | percentage damage caused to the plant, five-point scale, LOLPE (Lolium perenne (LOLPE) [10]) | percentage damage caused to the plant, five-point scale, SETFA (Setaria faberi (SETFA) [11]) | percentage damage caused to the plant, five-point scale, SOLNI (Solanum nigrum (SOLNI) [12])
3 (3=41-60%): percentage damage caused to the plant, five-point scale, AMARE [1] | percentage damage caused to the plant, five-point scale, IPOHE [3] | percentage damage caused to the plant, five-point scale, SOLNI (Solanum nigrum (SOLNI) [6]) | percentage damage caused to the plant, five-point scale, IPOHE [9]

O=C(O)C(F)(F)c1cccc(F)c1Br [Compound 1.032]
1 (1=0-20%): percentage damage caused to the plant, five-point scale, ECHCG [2] | percentage damage caused to the plant, five-point scale, LOLPE (Lolium perenne (LOLPE) [4]) | percentage damage caused to the plant, five-point scale, SETFA (Setaria faberi (SETFA) [5]) | percentage damage caused to the plant, five-point scale, ECHCG [8] | percentage damage caused to the plant, five-point scale, LOLPE (Lolium perenne (LOLPE) [10]) | percentage damage caused to the plant, five-point scale, SETFA (Setaria faberi (SETFA) [11])
4 (4=61-80%): percentage damage caused to the plant, five-point scale, AMARE [1] | percentage damage caused to the plant, five-point scale, IPOHE [3] | percentage damage caused to the plant, five-point scale, SOLNI (Solanum nigrum (SOLNI) [6]) | percentage damage caused to the plant, five-point scale, AMARE [7] | percentage damage caused to the plant, five-point scale, IPOHE [9] | percentage damage caused to the plant, five-point scale, SOLNI (Solanum nigrum (SOLNI) [12])

O=C(O)C(F)(F)c1cccc(Br)c1F [Compound 1.033]
4 (4=61-80%): percentage damage caused to the plant, five-point scale, ECHCG [2] | percentage damage caused to the plant, five-point scale, IPOHE [3] | percentage damage caused to the plant, five-point scale, SETFA (Setaria faberi (SETFA) [5]) | percentage damage caused to the plant, five-point scale, ECHCG [8] | percentage damage caused to the plant, five-point scale, IPOHE [9] | percentage damage caused to the plant, five-point scale, SETFA (Setaria faberi (SETFA) [11])
1 (1=0-20%): percentage damage caused to the plant, five-point scale, LOLPE (Lolium perenne (LOLPE) [4]) | percentage damage caused to the plant, five-point scale, LOLPE (Lolium perenne (LOLPE) [10])
5 (5=81-100%): percentage damage caused to the plant, five-point scale, AMARE [1] | percentage damage caused to the plant, five-point scale, SOLNI (Solanum nigrum (SOLNI) [6]) | percentage damage caused to the plant, five-point scale, AMARE [7] | percentage damage caused to the plant, five-point scale, SOLNI (Solanum nigrum (SOLNI) [12])

O=C(O)C(F)(F)c1cccc(F)c1Cl [Compound 1.036]
4 (4=61-80%): percentage damage caused to the plant, five-point scale, AMARE [1] | percentage damage caused to the plant, five-point scale, IPOHE [3] | percentage damage caused to the plant, five-point scale, SOLNI (Solanum nigrum (SOLNI) [6]) | percentage damage caused to the plant, five-point scale, AMARE [7] | percentage damage caused to the plant, five-point scale, IPOHE [9] | percentage damage caused to the plant, five-point scale, SOLNI (Solanum nigrum (SOLNI) [12])
1 (1=0-20%): percentage damage caused to the plant, five-point scale, ECHCG [2] | percentage damage caused to the plant, five-point scale, LOLPE (Lolium perenne (LOLPE) [4]) | percentage damage caused to the plant, five-point scale, SETFA (Setaria faberi (SETFA) [5]) | percentage damage caused to the plant, five-point scale, ECHCG [8] | percentage damage caused to the plant, five-point scale, LOLPE (Lolium perenne (LOLPE) [10]) | percentage damage caused to the plant, five-point scale, SETFA (Setaria faberi (SETFA) [11])

O=C(O)C(F)(F)c1cccc(Br)c1Cl [Compound 1.037]
4 (4=61-80%): percentage damage caused to the plant, five-point scale, ECHCG [2] | percentage damage caused to the plant, five-point scale, IPOHE [3] | percentage damage caused to the plant, five-point scale, SETFA (Setaria faberi (SETFA) [5]) | percentage damage caused to the plant, five-point scale, ECHCG [8] | percentage damage caused to the plant, five-point scale, IPOHE [9] | percentage damage caused to the plant, five-point scale, SETFA (Setaria faberi (SETFA) [11])
3 (3=41-60%): percentage damage caused to the plant, five-point scale, LOLPE (Lolium perenne (LOLPE) [4]) | percentage damage caused to the plant, five-point scale, LOLPE (Lolium perenne (LOLPE) [10])
5 (5=81-100%): percentage damage caused to the plant, five-point scale, AMARE [1] | percentage damage caused to the plant, five-point scale, SOLNI (Solanum nigrum (SOLNI) [6]) | percentage damage caused to the plant, five-point scale, AMARE [7] | percentage damage caused to the plant, five-point scale, SOLNI (Solanum nigrum (SOLNI) [12])

O=C(O)C(Cl)(Cl)c1cccc(Cl)c1Cl [Compound C1, reference compound]
0%: % phytotoxicity ECHCG ([2]; 500 g/ha) | % phytotoxicity LOLPE (Lolium perenne (LOLPE) [4]; 500 g/ha) | % phytotoxicity SETFA (Setaria faberi (SETFA) [5]; 500 g/ha) | % phytotoxicity ECHCG ([8]; 500 g/ha) | % phytotoxicity ECHCG ([8]; 1000 g/ha) | % phytotoxicity LOLPE (Lolium perenne (LOLPE) [10]; 500 g/ha) | % phytotoxicity LOLPE (Lolium perenne (LOLPE) [10]; 1000 g/ha) | % phytotoxicity SETFA (Setaria faberi (SETFA) [11]; 500 g/ha) | % phytotoxicity SETFA (Setaria faberi (SETFA) [11]; 1000 g/ha)
10%: % phytotoxicity ECHCG ([2]; 1000 g/ha) | % phytotoxicity SETFA (Setaria faberi (SETFA) [5]; 1000 g/ha)
80%: % phytotoxicity AMARE ([1]; 500 g/ha) | % phytotoxicity AMARE ([1]; 1000 g/ha) | % phytotoxicity IPOHE ([3]; 1000 g/ha) | % phytotoxicity AMARE ([7]; 500 g/ha) | % phytotoxicity AMARE ([7]; 1000 g/ha)
30%: % phytotoxicity IPOHE ([9]; 500 g/ha)
70%: % phytotoxicity IPOHE ([3]; 500 g/ha) | % phytotoxicity SOLNI (Solanum nigrum (SOLNI) [6]; 1000 g/ha) | % phytotoxicity SOLNI (Solanum nigrum (SOLNI) [12]; 1000 g/ha)
60%: % phytotoxicity SOLNI (Solanum nigrum (SOLNI) [6]; 500 g/ha) | % phytotoxicity IPOHE ([9]; 1000 g/ha) | % phytotoxicity SOLNI (Solanum nigrum (SOLNI) [12]; 500 g/ha)
20%: % phytotoxicity LOLPE (Lolium perenne (LOLPE) [4]; 1000 g/ha)
